Measured values taken from patent publication US20230279002A1, “Polymorphs of Crystalline Forms of 3,10-dimethoxy-5,8,13,13a-tetrahydro-6H-isoquinolino[3,2-a]isoquinolin-9-yl 3-fluorobenzenesulfonate and Salts Thereof” (CVI Pharmaceuticals Limited, priority 2020, published 2023).
Structures can show the parent of a compound that is named as a salt.

Columns and labels:
[1] = TGA (Thermal Gravimetric Analysis) weight loss; type: physicochemical
Protocol: TGA (Thermal Gravimetric Analysis): Samples of compounds (4˜6 mg) were weighed into the pan, and heated under nitrogen purge using a ramp rate of 20° C./min over the range of 30° C.˜350° C.

[2] = physchem; settings: 25 °C, thermodynamic from solid, Solubility (mg/mL)
Protocol: (§3) About 5 mg of seven kinds of salts were weighed into each vial, and 2 mL of medium was added, respectively. The medium included water, SGF and FaSSIF. All samples were stirred at 25° C. for 24 hours.

[3] = Solubility of salts in water, SGF and FaSSIF at 25° C. for 24 hours (HPLC)
Protocol: as §3

[4] = test system: serum PCSK9; test: Double-blind, randomized phase 1a study in healthy volunteers; type: in vivo, human; settings: 10 days oral 300 mg QD, compared to baseline
Description: (§1) Compound 1a has undergone a double-blind, randomized phase 1a study conducted in healthy volunteers. […] Currently, a phase 2 POC trial is underway in China in patients with hypercholesterolemia.

[5] = test system: serum LDL-C, TC, Apo B, and PCSK9; test: Proof-of-mechanism phase 1b study in subjects with elevated LDL-C; type: in vivo, human; settings: 28 days, compared with placebo cohort
Description: as §1

[6] = Solid stability at 40° C./0% RH (closed) and 40° C./75% RH (open), HPLC; type: physicochemical; settings: for 0 day % remaining / 5 day % remaining / 10 day % remaining: solid
Protocol: (§2) Solid stability: 5 mg of 2a was weighed into scintillation vials sealed properly and stored at 40° C./0% RH(closed), 40° C./75% RH(open) under dark conditions to avoid the effect of light on stability. Samples were collected at day 0, 5 and 10 and analyzed by HPLC.
Solid stability: 5 mg of compound was weighed into vials sealed properly and stored at 40° C./0% RH (closed), 40° C./75% RH (open) under dark conditions to avoid the effect of light. Samples were analyzed by HPLC at days 0, 7, and 21.
as §2, with “stability of compound 1a:” for “stability:”, “compound were accurately” for “of 2a was”, “condition” for “conditions”, “should be” for “were”, “10 days” for “10”

[7] = Phase 1 studies, safety and tolerability in healthy volunteers and hyperlipidemic subjects; type: in vivo, human
Description: as §1

[8] = Long term stability at 30° C./65% RH; type: physicochemical
[9] = Medium: SGF, 25° C., stirred 24 hours, HPLC
[10] = Medium: Water, 25° C., stirred 24 hours, HPLC
[11] = Medium: FaSSIF, 25° C., stirred 24 hours, HPLC

hydrochloride
TGA weight loss (from RT to 120° C.) [1]: 0.09%

COc1ccc2c(c1)CCN1Cc3c(ccc(OC)c3OS(=O)(=O)c3cccc(F)c3)C[C@H]21 [tosylate]
solubility at 24 h ([2]; fassif): < 1 µg/mL | solubility at 24 h ([2]; simulated gastric fluid): 399 µg/mL | solubility at 24 h ([2]; water): 411 µg/mL | TGA weight loss (from RT to 120° C.) [1]: 0.60% | TGA weight loss (in words) ([1]; room temperature to 120° C.): almost no significant weight loss

COc1ccc2c(c1)CCN1Cc3c(ccc(OC)c3OS(=O)(=O)c3cccc(F)c3)C[C@H]21 [sulfate]
solubility at 24 h ([3]; FaSSIF, 25 °C, fassif, thermodynamic from solid, Solubility (mg/mL), Medium: FaSSIF, 25° C., stirred 24 hours, HPLC): 2 µg/mL | solubility [3, 9]: 496 µg/mL | solubility [3, 10]: 1370 µg/mL | Solubility compared with other polymorphs (summary) ([3]; summary of the Examples): generally more soluble than other polymorphs | Solubility compared with other salts ([3]; water and SGF, 25° C., 24 hours): better than that of other salts | TGA weight loss (from RT to 120° C.) [1]: 0.12% | TGA weight loss (in words) ([1]; room temperature to 120° C.): no weight loss

COc1ccc2c(c1)CCN1Cc3c(ccc(OC)c3OS(=O)(=O)c3cccc(F)c3)C[C@H]21 [besylate]
solubility [3, 11]: 1 µg/mL | solubility [3, 9]: 214 µg/mL | solubility [3, 10]: 110 µg/mL | TGA weight loss (from RT to 120° C.) [1]: 0.24% | TGA weight loss (in words) ([1]; room temperature to 120° C.): no significant weight loss

COc1ccc2c(c1)CCN1Cc3c(ccc(OC)c3OS(=O)(=O)c3cccc(F)c3)C[C@H]21 [Compound 1a, 3,10-dimethoxy-5,8,13,13a-tetrahydro-6H-isoquinolino[3,2-a]isoquinolin-9-yl 3-fluorobenzenesulfonate]
serum PCSK9 levels [4]: significantly reduced | serum Apo B [5]: significantly reduced | serum LDL-C [5]: significantly reduced | serum PCSK9 levels [5]: significantly reduced | serum TC [5]: significantly reduced | Solid-state stability (HPLC) ([6]; 40° C./0% RH (closed) and 40° C./75% RH (open), dark, up to 10 days): substantially stable | 0 day % remaining ([6]; 40° C. (0% RH, closed)): 99.65% | 5 day % remaining ([6]; 40° C. (0% RH, closed)): 101.65% | 10 day % remaining ([6]; 40° C. (0% RH, closed)): 100.85% | 0 day % remaining ([6]; 40° C./75% RH (open)): 99.65% | 5 day % remaining ([6]; 40° C./75% RH (open)): 100.66% | 10 day % remaining ([6]; 40° C./75% RH (open)): 101.31% | safety profile [7]: favorable safety profile | tolerability [7]: well tolerated | % Remaining ([8]; 1 month): 100.30% | % Remaining ([8]; 3 month): 100.00% | % Remaining ([8]; 6 month): 99.30% | % Remaining ([8]; 12 month): 99.60% | % Remaining ([8]; 18 month): 99.20% | % Remaining ([8]; 24 month): 99.50% | % Remaining ([8]; 36 month): 100.40% | % Remaining ([8]; time 0): 100.10% | Long term stability ([8]; up to 36 months): stable

COc1ccc2c(c1)CCN1Cc3c(ccc(OC)c3OS(=O)(=O)c3cccc(F)c3)C[C@H]21 [maleate]
solubility [3, 11]: 1 µg/mL | solubility [3, 9]: 221 µg/mL | solubility [3, 10]: 86 µg/mL | TGA weight loss (from RT to 120° C.) [1]: 0.44% | TGA weight loss (in words) ([1]; room temperature to 120° C.): almost no obvious weight loss

COc1ccc2c(c1)CCN1Cc3c(ccc(OC)c3OS(=O)(=O)c3cccc(F)c3)C[C@H]21 [hydrobromide salt]
solubility [3, 11]: 2 µg/mL | solubility [3, 9]: 156 µg/mL | solubility [3, 10]: 163 µg/mL | TGA weight loss (from RT to 120° C.) [1]: 1.50% | TGA weight loss ([1]; room temperature to 120° C.): 1.50%
